Columns and labels:
[1] = tested on: MDA-MB-231 cells; assay: Mitotic entry assay (phospho-histone H3 Ser10, nocodazole trap, flow cytometry); assay type: cell-based, human
Source text: Of these, the G2/M checkpoint involves ATM and ATR in collaboration, whereas the S/M checkpoint is mediated solely by ATR. To maintain genetic integrity, ATR can prevent premature mitotic entry in the event of incomplete DNA replication or unrepaired DNA damage. In order to evaluate the effect of benzopyran-4-one derivatives on these ATR-associated DNA damage checkpoints, we observed the effect of benzopyran-4-one derivatives on mitotic entry following hydroxyurea or cisplatin treatment.
DNA replication was measured using a Click-it EdU assay kit, which is based on incorporation of the thymidine analogue 5-ethynyl-2′-deoxyuridine (EdU) into DNA during replication (Invitrogen). Then, 10 μM EdU was added to the cell culture medium 30 min before the cells were harvested and fixed in 4% paraformaldehyde. After cycloaddition, EdU was detected with Alexa Fluor 647 using click reaction catalyzed by Cu (II), and the DNA content was stained by CellCycle 405-blue. To assay the mitotic entry, cells were treated with the indicated drugs and trapped in 70 nM nocodazole for 16 h, and antibodies against phospho-histone H3 Ser10 and PI were used to stain the mitotic cells and DNA content, respectively. An FITC Annexin V apoptosis detection kit was used to characterize the phenotype of cell death based on PI and Annexin V double staining (BD Pharmingen, San Diego, Calif.). Fluorescence-labeled cells were subsequently analyzed by the BD LSR II flow cytometer with a suitable selection of excitation and emission wavelengths. The percentages of different fluorescent cells were analyzed using WinMDI Ver. 2.9.

[2] = tested on: HeLa cells; assay: DNA homologous recombination repair assay (pHPRT-DRGFP / I-SceI); assay type: cell-based, human; details: for GFP cell (%): chromosomal breaks generated by I-SceI endonuclease expression, 48 h
Source text: ATR function is also linked to DNA repair via its coupled targets (Sorensen C S, et al. Nat Cell Biol 2005). To examine the effect of benzopyran-4-one derivatives treatment on DNA repair, we performed a homologous recombination repair (HRR) assay in HeLa cells. DNA constructs of the recombination substrate pHPRT-DRGFP, in which the I-SceI site lies within 1 copy of 2 mutated tandem repeated GFP genes, and the I-SceI endonuclease expression vector pCBASceI, were originally constructed by Dr. M. Jasin (25). In brief, we generated a stable pHPRT-DRGFP construct in HeLa cells, and evaluated the chromosomal breaks generated by I-SceI endonuclease expression. Six hours after pCBASceI was delivered into the cells, complete medium with or without Protoapigenone (I-1) or compound II-1 was replaced onto the cells. Forty-eight hours after delivery, the efficiency of chromosomal HRR was obtained as the percentage of GFP-positive cells, which was assessed by flow cytometry.

[3] = tested on: host cell; assay: MTT assay of host cell toxicity; assay type: cell-based; details: 1 μM, 6 hours treatment plus 18 hours fresh medium
Procedure: To understand whether or not inhibition of the virus infection is followed by the host cell toxicity caused by the compound treatments, we performed an MTT [3-(4,5-cimethylthiazol-2-yl)-2,5-diphenyl tetrazolium bromide] assay in cells untreated or treated with indicated compounds for 6 hours. After that, the compound is washed out and the MTT assay was tested after an additional 18 hours of fresh culture medium incubation, in a way similar to the protocol shown in FIG. 26. 0.5 mg/mL of MTT contained media was added to cells at the end of the experiment and incubated for 3 hours. Then, the supernatant was removed and the formazone crystals solubilized using 100 μl of DMSO and the absorbance at 570 nm was read using a microplate reader. […] However, the virus inhibition effect of 50-99% is also shown at this dose of Compound II-1.

[4] = tested on: FANCD2; assay: Immunoblot of FANCD2 monoubiquitination; assay type: cell-based, human; details: cisplatin-treated cells, same doses as Protoapigenone (I-1)
Source text: Understanding the mechanism by which the benzopyran-4-one derivatives compounds cause chromosomal breakages (FIG. 1) and other abnormalities might aid in identifying their targets. We hypothesized that genes with functions associated with DNA damage checkpoints and/or DNA repair might be targeted by benzopyran-4-one derivatives. To test this hypothesis, we assessed the effects of benzopyran-4-one derivatives on DDR induced by H2O2. […] In response to DNA double-strand breaks (DSBs), FANCD2 is known to be monoubiquitinated on K561 (FANCD2-Ub) in an ATR-dependent manner to stimulate repair (Andreassen P R, et al. Genes Dev 2004). […] Collectively, these findings indicate that benzopyran-4-one derivatives can modify ATR signaling after various types of DNA damage.
Inhibition of the checkpoint and repair mechanisms leads to chemosensitization in cancers. […] We further treated individual cells with cisplatin in combination with several varying doses of benzopyran-4-one derivatives, and counted survival colonies to determine their ability to survive after cisplatin-induced damage. […]
Cell lysate preparations, gel electrophoresis, and immunoblotting were performed as previously described (23). The binding of primary antibodies were detected by horseradish peroxidase-coupled secondary antibodies (Jackson ImmunoResearch) followed by enhanced chemiluminescence (ECL) (Millipore). […]

[5] = tested on: MDA-MB-231 cells; assay: In vitro chemosensitization assay (clonogenic survival); assay type: cell-based, human
Source text: Inhibition of the checkpoint and repair mechanisms leads to chemosensitization in cancers. […] We further treated individual cells with cisplatin in combination with several varying doses of benzopyran-4-one derivatives, and counted survival colonies to determine their ability to survive after cisplatin-induced damage. […] To investigate the chemosensitization effect of low-dose benzopyran-4-one derivatives in vivo, we established a tumor xenograft in nude mice using human MDA-MB-231 tumor cells, which are considered to be more resistant to cisplatin and are also sensitive to treatment with benzopyran-4-one derivatives, at least as compared to A549 cells (FIGS. 4, 17(a) and 17(b)). […] The pharmacokinetic data of Protoapigenone (I-1) and compound II-1 needs to be compared in future studies to determine the differences in the chemical effects of these 2 compounds in vitro and in vivo.
Please refer to FIGS. 31(a)-31(e), which are the surviving fractions of MDA-MB-231 cells which were co-administered compound II-1 with the DNA damaging agent, i.e. (a) doxorubicin, (b) etoposide, (c) mytomycin C, (d) camptothecin, or (e) taxol. […] Accordingly, a low dose of benzopyran-4-one derivatives can enhance the chemosensitivity of the chemotherapeutic drug.
To evaluate in vitro chemosensitization, cells were seeded in 6-well plates 1 d before the experiment at a density of 100-400 cells/well. The drugs were incubated with the cells for 6 h, after which the medium was replaced with fresh drug-free FBS-containing medium. The colonies became visible and were counted 7-10 d later using 0.1% crystal violet staining following image capture by a CCD camera (LAS-4000 mini; Fujifilm).

[6] = tested on: cancer cells; assay: MTT cytotoxicity assay on cancer cells, 48 h; assay type: cell-based, human; details: FIG. 4
[7] = compound alone (Control group, no DNA-damaging agent)
[8] = compound with Cisplatin (G2/M checkpoint)
[9] = compound with Hydroxyurea (S/M checkpoint)

SMILES | The percentage of mitotic cells [1, 7] | The percentage of mitotic cells [1, 8] | The percentage of mitotic cells [1, 9] | GFP cell (%) ([2]; 2.0 μM) | GFP cell (%) ([2]; 4.0 μM) | Repair of chromosomal breaks by HRR, in words ([2]; low concentrations) | Decrease of surviving cells [3] | FANCD2 monoubiquitination and protein stability [4] | Dose lower than that of Protoapigenone (I-1) for similar HRR effects [2] | GFP cell (%) ([2]; 0.2 μM) | GFP cell (%) ([2]; 0.4 μM) | Survival of MDA-MB-231 cells ([5]; 2.5 nM to 20.0 nM co-administered with camptothecin) | Survival of MDA-MB-231 cells ([5]; 2.5 nM to 20.0 nM co-administered with doxorubicin) | Survival of MDA-MB-231 cells ([5]; 2.5 nM to 20.0 nM co-administered with etoposide) | Survival of MDA-MB-231 cells ([5]; 2.5 nM to 20.0 nM co-administered with mytomycin C) | Survival of MDA-MB-231 cells ([5]; 2.5 nM to 20.0 nM co-administered with taxol) | Cytotoxicity, comparison [6]
O=C1C=CC(O)(c2cc(=O)c3c(O)cc(O)cc3o2)C=C1 [Compound I-1, Protoapigenone] | 23.69 ± 0.94% | 7.99 ± 0.91% | 3.40 ± 0.41% | 0.807 ± 0.0403% | 0.213 ± 0.0105% | dose-dependently inhibited |  |  |  |  |  |  |  |  |  |  | 
O=C1C=CC(O)(c2cc(=O)c3c(ccc4ccccc43)o2)C=C1 [Compound II-1, 3-(1-hydroxy-4-oxo-cyclohexa-2,5-dienyl)-1H-benzo[f]chromen-1-one] | 12.05 ± 0.68% | 8.14 ± 0.99% | 10.49 ± 1.17% |  |  |  | 5-10% | not only inhibits monoubiquitination of FANCD2 but also affects FANCD2 protein stability | 10 fold | 0.703 ± 0.0304% | 0.17% | not significantly decreased | significantly decreased | significantly decreased | significantly decreased | not significantly decreased | more potent than Protoapigenone (I-1)
